The text below walks through data of article PMC12881670, “Investigation into ligand selectivity and bias at the formyl peptide receptor family” (The Journal of Pharmacology and Experimental Therapeutics, 2025).

“Also recorded” adds a separate entry of the source. Where a SMILES comes first, the peptide text is derived from it. Where no end group is shown, it is not given here. The star is where a group is joined. For = O=C*

What all share (format): cell-based
The target in assay [1] is T1, Hs_FPR2 (Homo sapiens, UniProt P25090).
T1 construct: expressed in transfected cells
T1 sequence (P25090 1-351): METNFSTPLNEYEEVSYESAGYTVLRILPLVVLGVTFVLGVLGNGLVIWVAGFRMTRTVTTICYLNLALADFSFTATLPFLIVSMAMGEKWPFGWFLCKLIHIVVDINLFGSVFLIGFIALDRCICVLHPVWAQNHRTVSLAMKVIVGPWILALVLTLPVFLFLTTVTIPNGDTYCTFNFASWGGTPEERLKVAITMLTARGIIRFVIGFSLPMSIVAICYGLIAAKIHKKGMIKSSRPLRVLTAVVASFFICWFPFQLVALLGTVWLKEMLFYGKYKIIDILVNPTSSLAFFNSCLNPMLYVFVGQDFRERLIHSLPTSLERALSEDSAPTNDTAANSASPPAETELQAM
Briefly: ERK1/2 phosphorylation by Western blotting. To be noted: for EC50 / Log EC50 (M): log of EC50, phosphorylation of ERK1/2, HEK293 stable cells; for EC50 / Log EC50 (M) / Emax (%): mean, ND = no pERK signal detected; for Emax (%): phospho-ERK, % of 1 μM WKYMVm. Also on record: Emax: dose or concentration left out as unconfirmed.

The target of assay [2] is T2, Mm_Fpr2 (Mus musculus, UniProt O88536).
T2 construct: expressed in transfected cells
T2 sequence (O88536 1-351): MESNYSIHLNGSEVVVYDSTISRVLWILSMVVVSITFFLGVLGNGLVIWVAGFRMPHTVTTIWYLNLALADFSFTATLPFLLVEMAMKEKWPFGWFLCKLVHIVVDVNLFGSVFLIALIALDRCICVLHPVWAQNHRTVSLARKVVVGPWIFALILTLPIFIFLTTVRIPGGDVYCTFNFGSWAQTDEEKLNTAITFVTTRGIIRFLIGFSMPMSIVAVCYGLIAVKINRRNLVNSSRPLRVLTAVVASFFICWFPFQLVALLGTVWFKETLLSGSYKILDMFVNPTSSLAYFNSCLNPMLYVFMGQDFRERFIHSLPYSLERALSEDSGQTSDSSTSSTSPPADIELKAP
The assay is described as follows: ERK1/2 phosphorylation by Western blotting. Further details: Emax: dose or concentration left out as unconfirmed. To be noted: for EC50 / Log EC50 (M): log of EC50, phosphorylation of ERK1/2, HEK293 stable cells; for EC50 / Log EC50 (M) / Emax (%): mean, ND = no pERK signal detected; for Emax (%): phospho-ERK, % of 1 μM WKYMVm.

A further assay has as its target T3, Hs_FPR1 (Homo sapiens, UniProt P21462).
T3 construct: expressed in transfected cells
T3 sequence (P21462 1-350): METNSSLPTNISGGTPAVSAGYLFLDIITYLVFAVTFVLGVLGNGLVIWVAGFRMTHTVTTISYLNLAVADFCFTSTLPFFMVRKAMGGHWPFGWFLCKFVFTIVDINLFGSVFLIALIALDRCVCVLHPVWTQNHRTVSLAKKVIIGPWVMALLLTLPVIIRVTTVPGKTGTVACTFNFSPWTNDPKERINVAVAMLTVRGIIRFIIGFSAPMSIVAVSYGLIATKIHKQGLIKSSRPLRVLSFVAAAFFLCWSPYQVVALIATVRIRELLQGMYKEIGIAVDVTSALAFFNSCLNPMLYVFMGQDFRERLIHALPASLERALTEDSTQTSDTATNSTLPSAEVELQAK
The assay is described as follows: ERK1/2 phosphorylation by Western blotting. Further details: Emax: dose or concentration left out as unconfirmed. The conditions noted are these: for EC50 / Log EC50 (M): log of EC50, phosphorylation of ERK1/2, HEK293 stable cells; for EC50 / Log EC50 (M) / Emax (%): mean, ND = no pERK signal detected; for Emax (%): phospho-ERK, % of 1 μM WKYMVm.

In the next assay the target is T4, Mm_Fpr1 (Mus musculus, UniProt P33766).
T4 construct: expressed in transfected cells
T4 sequence (P33766 1-364): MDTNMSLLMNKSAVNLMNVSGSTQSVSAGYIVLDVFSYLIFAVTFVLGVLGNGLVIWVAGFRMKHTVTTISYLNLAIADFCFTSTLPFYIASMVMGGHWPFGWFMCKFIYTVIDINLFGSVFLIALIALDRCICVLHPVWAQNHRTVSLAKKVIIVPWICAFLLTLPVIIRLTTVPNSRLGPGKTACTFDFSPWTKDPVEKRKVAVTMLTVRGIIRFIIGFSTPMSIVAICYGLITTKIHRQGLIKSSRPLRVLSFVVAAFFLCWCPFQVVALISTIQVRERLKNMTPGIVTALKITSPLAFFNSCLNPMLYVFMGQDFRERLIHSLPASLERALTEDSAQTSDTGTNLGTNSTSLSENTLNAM
The assay is described as follows: Internalization of FLAG-tagged receptors by flow cytometry. Further details: Emax: dose or concentration left out as unconfirmed. To be noted: for agonist-induced internalization (words): Mm_Fpr1, 30 min, relative to 1 μM WKYMVm. Summed up: (§1)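 Surface FLAG-receptors labelled with Alexa Fluor-conjugated M1 anti-FLAG for 30 min at 37 °C, then exposed to ligand; surface antibody stripped with PBS/0.04% EDTA and internalised fluorescence read by flow cytometry (5000 events), constitutive endocytosis subtracted. Curves fitted by log(agonist) vs response, 3 parameters.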

Assay [3] addresses T2, Mm_Fpr2. Described as above. Further details: Emax: dose or concentration left out as unconfirmed. The conditions noted are these: for Emax (%), internalization, Mean: % of internalization to WKYMVm (1 mM in legend, 1 μM in text), Mm_Fpr2, 30 minutes; for Log EC50 (M), internalization, Mean: HEK293 stably expressing FLAG-Mm_Fpr2, ligand 30 minutes; for agonist-induced internalization (words): Mm_Fpr2, 30 min, relative to 1 μM WKYMVm. The method in brief:
as §1

The target of assay [4] is T1, Hs_FPR2. Briefly: BRET receptor-RLuc8 interaction with Venus-mGsi. The conditions noted are these: for Log EC50 (M): log of EC50, HEK293 transient, 10 min; for Log EC50 (M) / Emax (%): mGsi BRET, mean, ND = no interaction detected; for Emax (%): % of response to 1 μM WKYMVm. Summed up:
(§2)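 RLuc8-fused FPR donor with Venus-mGsi or YFP-Arrestin 3 acceptor (1:4), transient; replate 24 h, grow 24–48 h. HBSS 30 min, coelenterazine h 5 μM final 5 min pre-compound, then 10 min 37 °C.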

The target in assay [5] is T1, Hs_FPR2. The assay is described as follows: BRET receptor-RLuc8 interaction with Arrestin 3-YFP. The conditions noted are these: for Emax (%) / Log EC50 (M): Arrestin 3 BRET, mean, ND = no interaction detected; for Emax (%): % of response to 1 μM WKYMVm; for Log EC50 (M): log of EC50, HEK293 transient, 10 min. The method in brief:
as §2

[6] abbreviates: Hs_FPR2-Rluc8 donor, Arrestin 3-YFP acceptor, read-out: EC50 arrestin recruitment, BRET.

Take `CSCC[C@H](NC(=O)[C@H](Cc1ccc(O)cc1)NC(=O)[C@H](CCCCN)NC(=O)[C@@H](N)Cc1c[nH]c2ccccc12)C(=O)N[C@H](C(=O)N[C@H](CCSC)C(N)=O)C(C)C` [WKYMVm]: the maximal response (Emax) was found to be 93.8% on Hs_FPR2 [1]; 118% on Mm_Fpr2 [2]; 104% at Hs_FPR1; 108% at Mm_Fpr1; 102% on Mm_Fpr2 [3]; 100% on Hs_FPR2 [4]. Besides, at Hs_FPR2 [5], the Emax was found to be 102%.

On to `CSCC[C@H](NC=O)C(=O)N[C@@H](CC(C)C)C(=O)N[C@@H](Cc1ccccc1)C(=O)N[C@@H](CCCCN)C(=O)O` [fMLFK, fMet-Leu-Phe-Lys] (For-MLFK-OH), for which the Emax at Hs_FPR2 [1] was 74.3%; at Mm_Fpr2 [2], 176%; on Hs_FPR1, 112%; at Mm_Fpr1, 179%; on Mm_Fpr2 [3], 81.6%; on Hs_FPR2 [4], 80.7%. For the same molecule, the maximal response (Emax) at Hs_FPR2 [5] is 92.7%. For the same molecule, the EC50 at Hs_FPR2 [1] is 1320 nM; on Mm_Fpr2 [2] it was 1240 nM; at Hs_FPR1, 6.85 nM; at Mm_Fpr1 it was 6110 nM; on Mm_Fpr2 [3], 1.16e-05 M; on Hs_FPR2 [4], 26900 nM. Also, the EC50 on Hs_FPR2 [5] (read-out: Log EC50 (converted)) was 36300 nM.

`Cc1cccc(-c2oc(C)nc2C(=O)Nc2cnn(Cc3nc(C(C)(F)F)co3)n2)c1` [ACT-389949]: the “Log EC50 (M)” value is −7.723 M at Hs_FPR2 [1]; −8.394 M on Mm_Fpr2 [2]; −7.37 M on Hs_FPR1; −7.80 M at Hs_FPR2 [4]; −7.74 M at Hs_FPR2 [5]. Moreover, the “Emax (%)” value on Hs_FPR2 [1] stood at 81.57%; at Mm_Fpr2 [2] it was 136.1%; at Hs_FPR1 it was 112.1%; at Hs_FPR2 [4], 69.25%; on Hs_FPR2 [5], 73.56%. Further, the “agonist-induced internalization (words)” value on Mm_Fpr1 is listed as “only at 10 μM”; at Mm_Fpr2 [3], “full agonist”. Further, the “Emax (%), internalization, Mean” value at Mm_Fpr2 [3] came out at 118.5%. Besides, on Mm_Fpr2 [3], the “Log EC50 (M), internalization, Mean” value is listed as −6.539 M. For the same molecule, the “fold less potency at Mm_Fpr2, internalization” value at Mm_Fpr2 [3] (equipotent to WKYMVm at Hs_FPR2) amounted to 28 fold. Besides, the EC50 on Hs_FPR2 [5] (setting [6]) came to 18 nM.

In the case of `CCCCOc1ccc(C(=O)NN2C(=O)c3ccccc3NC2c2ccc(OC)cc2)cc1` (stereo not shown) [QuinC1], the “Log EC50 (M)” value is on record as −5.882 M on Hs_FPR2 [1]; −4.94 M on Mm_Fpr2 [2]; −5.86 M on Hs_FPR1; −6.06 M on Hs_FPR2 [4]; −5.82 M on Hs_FPR2 [5]. Further, the “Emax (%)” value at Hs_FPR2 [1] is on record as 101.7%; at Mm_Fpr2 [2], 381.2%; on Hs_FPR1 it was 92.57%; on Hs_FPR2 [4], 34.75%; at Hs_FPR2 [5] it was 40.71%. Moreover, the “Emax (%), internalization, Mean” value on Mm_Fpr1 (% of internalization to WKYMVm (1 mM in legend, 1 μM in text), Mm_Fpr1, 30 minutes, ND denotes no internalization measured) is given as 66.27%; at Mm_Fpr2 [3], 41.84%. Also, the “Log EC50 (M), internalization, Mean” value was −6.120 M at Mm_Fpr1 (Log EC50, HEK293 stably expressing FLAG-Mm_Fpr1, ligand 30 minutes, ND denotes no internalization measured) and −7.106 M on Mm_Fpr2 [3]. The “agonist-induced internalization (words)” value on Mm_Fpr1 and on Mm_Fpr2 [3] was “partial agonists” throughout.

Regarding LESIFRSLLFRVM [MMK1], the Emax was 114% at Hs_FPR2 [1]; 86.6% at Mm_Fpr2 [2]; 40.1% at Hs_FPR1; 11.6% at Mm_Fpr1; 8.68% at Mm_Fpr2 [3]; 38.7% on Hs_FPR2 [4]. In addition, on Hs_FPR2 [5], the maximal response (Emax) came out at 59.1%. For the same molecule, the “Log EC50 (M)” value at Hs_FPR2 [1] was −8.646 M; on Mm_Fpr2 [2], −6.482 M; at Hs_FPR1, −6.84 M; at Hs_FPR2 [4], −7.17 M; on Hs_FPR2 [5], −7.03 M. In addition, the “agonist-induced internalization (words)” value at Mm_Fpr1 is reported as “failed to show appreciable internalization”; on Mm_Fpr1 (listed as MMK-1), “unable to induce internalization”; at Mm_Fpr2 [3], “unable to induce internalization”.

Regarding `COc1cc(F)c([C@@H]2CNC(=O)[C@H]2NC(=O)Nc2ccccc2)c(F)c1` [BMS-986235], the Emax worked out at 116% on Hs_FPR2 [1]; 116% on Mm_Fpr2 [2]; 88% on Mm_Fpr2 [3]; 64.4% at Hs_FPR2 [4]; 85.1% on Hs_FPR2 [5]. Further, the EC50 on Hs_FPR2 [1] was 679 nM; on Mm_Fpr2 [2], 3.78 nM; on Hs_FPR1, 16200 nM; at Mm_Fpr2 [3] (read-out: Log EC50 (M), internalization, Mean (converted)) it was 1.03e-07 M; at Hs_FPR2 [4], 75.9 nM; at Hs_FPR2 [5] (setting [6]), 39.9 nM. The entries for the “agonist-induced internalization (words)” value at Mm_Fpr1 and on Mm_Fpr2 [3] were “failed to show appreciable internalization; also recorded: unable to induce any measurable internalization” and “robust internalization”, respectively. The “times more potent at Mm_Fpr2 than Hs_FPR2, internalization” value on Mm_Fpr2 [3] is on record as 9 times.
